In brackets after ≈: the same amount, converted by molar mass. Entries after “also recorded” stand apart in the source; their conditions may differ. Read-outs that look alike come from different tables or passages of the source.
Assays:
[1] = system: Normal human foreskin fibroblasts; type: cell-based
Experimental: (§1) Normal human foreskin fibroblasts (American Type Culture Collection, Manassas, Va.) were used to grow tachyzoites and to test compounds for activity and cytotoxicity. Cells were maintained in Dulbecco's modified Eagle medium (Gibco, Grand Island, N.Y.) containing 10% fetal bovine serum (Atlas Biologicals, Fort Collins, Colo.), 25 mM HEPES (Gibco), 2 mM L-glutamine, 50 units of penicillin G per ml, and 50 μg of streptomycin sulfate per ml. A culture of the tachyzoites of T. gondii strain 2F, which constitutively expresses cytoplasmic β-galactosidase and is derived from strain RH (5), was a gift from Vern Carruthers, University of Michigan Medical School.
(§2) The compounds were tested for in vitro efficacy against T. gondii and cytotoxicity by previously published methods (9, 10). The median inhibitory dose (50% inhibitory dose [ID50]) and the median cytotoxic dose (50% toxic dose [TD50]) were calculated by extrapolation of the corresponding dose-response curve on a log-linear plot employing the portions of the curve that transected the 50% response point. For each compound, a therapeutic index (TI) was calculated by the formula TI=TD50/ID50.
(§3) Artemisinin was obtained from Holley Pharmaceuticals Co., Inc., Fullerton, Calif. Artemether was generously donated by Huiling Wang, University of Wuhan, China. Trimethoprim was purchased from Sigma Chemical Co. (St. Louis, Mo.). Chlorophenol red-β-D-galactopyranoside (Roche, Indianapolis, Ind.), 100 mM in 100 mM HEPES (pH 7.2), was stored frozen at −80° C. CellTiter 96 AQueous One Solution Reagent for determining cytotoxicity was purchased from Promega Corp., Madison, Wis.

[2] = system: T. gondii strain 2F; assay: In vitro inhibition of T. gondii (growth inhibition assay); type: cell-based, Toxoplasma gondii; details: for antitoxoplasma inhibitory activity (growth inhibition assay): in words
Experimental: as §1, §2, §3

[3] = system: T. gondii tachyzoites; assay: Quantification of invasion using red/green assay (attachment/penetration); type: cell-based, Toxoplasma gondii; details: 10 μg/ml (range 25-34 μM); FIG. 1
Experimental: (§4) FIG. 1 illustrates the quantification of invasion using red/green assay. Green bars represent internal/penetrated parasites while red bars depict external/attached parasites. Compounds were tested at 10 μg/ml (range 25-34 μM). BAPTA-AM (20 μM) and cytochalasin D (Cyt D, 2 μM) were included as positive controls for inhibition of attachment or penetration, respectively. Data are mean values±SEM of three independent experiments, counting ten random fields for each sample.
as §4, with “red/green assay (8). Black” for “red/green assay. Green”, “while gray” for “while red”

[4] = system: T. gondii tachyzoites; assay: Replication inhibition assay; type: cell-based, Toxoplasma gondii; details: 10 μg/ml added 2 hours after infection of HFF cells, 26 hours; FIG. 2
Experimental: (§5) FIG. 2 illustrates the replication inhibition assay. T. gondii tachyzoites are allowed to infect HFF cells for 2 hours. Following this, compounds are added to the cells for a final concentration of 10 μg/ml and the infection is allowed to progress for 26 hours. Data are compiled from ten randomly selected fields wherein number of vacuoles and number of parasites within the vacuoles are enumerated. Control represents no drug added.
as §5, with “assay (14).” for “assay.”

[5] = system: chloroquine-sensitive Plasmodium falciparum (NF 54); assay: Inhibition of replication of malaria parasites; type: cell-based; details: unpublished data of J. D'Angelo and G. Posner
[6] = Table 1, T. gondii in human foreskin fibroblasts
[7] = Toxoplasma gondii, Fibroblast, Table 1, T. gondii in human foreskin fibroblasts, read-out: ID50 (the source's name)
[8] = Toxoplasma gondii, Table 2, average of three independent experiments, read-out: ID50 (the source's name)
[9] = Toxoplasma gondii, summary of Table 1, read-out: concentration inhibiting toxoplasma replication
[10] = Table 1, T. gondii in human foreskin fibroblasts, read-out: ID50 (the source's name)
[11] = Table 2, average of three independent experiments, read-out: ID50 (the source's name)

CO[C@H]1O[C@@H]2O[C@@]3(C)CC[C@H]4[C@H](C)CC[C@@H]([C@H]1C)[C@@]24OO3 [Artemether, reference compound]
concentration of 50% cytotoxicity (TD50) ([1]; human): > 160 µg/mL | ID50 [2, 6]: 0.2 µg/mL (≈ 0.67 µM) | IC50 [2, 7]: 700 nM | IC50 [2, 8]: 370 nM | IC50 [2, 9]: < 1 µg/mL

C[C@@H]1CC[C@H]2[C@@H](C)C(=O)O[C@@H]3O[C@@]4(C)CC[C@@H]1[C@]32OO4 [Artemisinin]
inhibition of attachment of T. gondii tachyzoites to HFF cells [3]: exception | inhibition of T. gondii replication [4]: ineffective | ID50 [2, 6]: 2.3 µg/mL (≈ 8.15 µM) | IC50 [2, 7]: 8000 nM | IC50 [2, 9]: 2 to 3 µg/mL

C[C@H]1[C@@H](CCCO)O[C@@H]2O[C@]3(C)CC[C@H]4[C@H](C)CC[C@@H]1[C@@]24OO3 [Compound 2a, ART-PrOH]
ID50 [2, 6]: 2.7 µg/mL (≈ 8.27 µM) | IC50 [2, 7]: 8300 nM | IC50 [2, 9]: 2 to 3 µg/mL

CC1CCC2C(C)C(CCCOC(=O)c3ccccc3)OC3OC4(C)CCC1C32OO4 (stereo not drawn) [Compound 2b]
ID50 [2, 6]: 0.6 µg/mL (≈ 1.39 µM) | IC50 [2, 10]: 1400 nM

CC1CCC2C(C)C(CCCOC(=O)c3ccccc3Br)OC3OC4(C)CCC1C32OO4 (stereo not drawn) [Compound 2c]
ID50 [2, 6]: 0.6 µg/mL (≈ 1.18 µM) | IC50 [2, 10]: 1200 nM

CC(C)=CCCC(C)CCOCCCC1OC2OC3(C)CCC4C(C)CCC(C1C)C24OO3 (stereo not drawn) [Compound 2d]
concentration of 50% cytotoxicity (TD50) [1]: > 160 µg/mL | ID50 [2, 6]: 0.5 µg/mL (≈ 1.08 µM) | IC50 [2, 10]: 1100 nM

CC1=C(c2nccs2)OC2OC3(C)CCC4C(C)CCC1C24OO3 (stereo not drawn) [Compound 3a, DART-Thiaz]
inhibition of T. gondii replication [4]: moderate inhibition | IC50 [2, 11]: 1700 nM

CC1=C(c2nc3ccccc3s2)OC2OC3(C)CCC4C(C)CCC1C24OO3 (stereo not drawn) [Compound 3b, DART-Benzothiazole]
inhibition of T. gondii replication [4]: quite effective | IC50 [2, 11]: 1000 nM

CC1=C(C=O)OC(C)C1C (stereo not drawn) [Compound 3c, DART-ald]
inhibition of T. gondii replication [4]: quite effective | IC50 [2, 8]: 1000 nM

CC1=C(C(=O)O)OC(C)C1C (stereo not drawn) [Compound 3d, DART-C(O)—OH]
inhibition of T. gondii replication [4]: ineffective | IC50 [2, 8]: 40300 nM

COC(=O)C1=C(C)C(C)C(C)O1 (stereo not drawn) [Compound 3e, DART-C(O)—OMe]
inhibition of T. gondii replication [4]: moderate inhibition | concentration of 50% cytotoxicity (TD50) ([1]; human): > 160 µg/mL | IC50 [2, 8]: 2900 nM

CCNC(=O)C1=C(C)C(C)C(C)O1 (stereo not drawn) [Compound 3f, DART-C(O)—NHEt]
inhibition of attachment of T. gondii tachyzoites to HFF cells [3]: exception | inhibition of T. gondii replication [4]: moderate inhibition | IC50 [2, 8]: 4400 nM

C[C@H]1[C@@H](CCCO)O[C@@H]2O[C@]3(C)CC[C@H]4[C@H](C)CC[C@@H]1[C@@]24O3 [Deoxy-2a, Deoxy-ART-PrOH]
antimalaria activity [5]: virtually no antimalaria activity | ID50 [2, 6]: 173 µg/mL (≈ 557 µM) | IC50 [2, 7]: 560000 nM | antitoxoplasma inhibitory activity (growth inhibition assay) [2]: virtually no inhibitory activity; also recorded: devoid of antitoxoplasma activity

CC1=C(c2nccs2)OC2O[C@]3(C)CC[C@H]4[C@H](C)CC[C@@H]1[C@@]24O3 (stereo partly drawn) [Deoxy-3a, deoxy-DART-thiaz]
inhibition of attachment of T. gondii tachyzoites to HFF cells [3]: effective in inhibition of attachment | inhibition of T. gondii replication [4]: ineffective | antimalaria activity [5]: virtually no antimalaria activity | IC50 [2, 8]: 960000 nM | antitoxoplasma inhibitory activity (growth inhibition assay) [2]: little or no efficacy; also recorded: devoid of antitoxoplasma activity

COc1cc(Cc2cnc(N)nc2N)cc(OC)c1OC [Trimethoprim, reference compound]
concentration of 50% cytotoxicity (TD50) ([1]; human): 60 µg/mL | ID50 [2, 6]: 5.2 µg/mL (≈ 17.9 µM) | IC50 ([2]; Toxoplasma gondii, Fibroblast, read-out: ID50): 17900 nM | IC50 ([2]; Toxoplasma gondii, read-out: ID50): 19000 nM | IC50 ([2]; Toxoplasma gondii, read-out: concentration inhibiting toxoplasma replication): 5.2 µg/mL

Source: patent US8431611B2, “Artemisinin derivatives” (Johns Hopkins University, priority 2006, dated 2013)
